According to the kinase profiling compilation of Christmann-Franck et al. (2016):

What was measured:
Assay in all cases: radiometric filter-binding kinase assay, Kinase HotSpot
Conditions in all cases: compound 0.5 µM; ATP 10 µM
[1] = biological target: EPHB2 (human) (UniProt P29323)
[2] = biological target: TYRO3 (human) (UniProt Q06418)
[3] = biological target: IRAK1 (human) (UniProt P51617)
[4] = biological target: CSNK1E (human) (UniProt P49674)
[5] = biological target: MATK (human) (UniProt P42679)
[6] = biological target: PIM2 (human) (UniProt Q9P1W9)
[7] = biological target: MARK2 (human) (UniProt Q7KZI7)
[8] = biological target: MAP3K9 (human) (UniProt P80192)
[9] = biological target: PLK2 (human) (UniProt Q9NYY3)
[10] = biological target: GSG2 (human) (UniProt Q8TF76)
[11] = biological target: SLK (human) (UniProt Q9H2G2)
[12] = biological target: MERTK (human) (UniProt Q12866)
[13] = biological target: DCLK2 (human) (UniProt Q8N568)
[14] = biological target: STK17A (human) (UniProt Q9UEE5)
[15] = biological target: MST1R (human) (UniProt Q04912)
[16] = biological target: JAK1 JH1 catalytic (human) (UniProt P23458)
[17] = biological target: PLK3 (human) (UniProt Q9H4B4)
[18] = biological target: CSNK1G3 (human) (UniProt Q9Y6M4)
[19] = biological target: DYRK4 (human) (UniProt Q9NR20)
[20] = biological target: NUAK2 (human) (UniProt Q9H093)
[21] = biological target: DMPK (human) (UniProt Q09013)
DMPK (human), sequence (Q09013 whole entry, looked up): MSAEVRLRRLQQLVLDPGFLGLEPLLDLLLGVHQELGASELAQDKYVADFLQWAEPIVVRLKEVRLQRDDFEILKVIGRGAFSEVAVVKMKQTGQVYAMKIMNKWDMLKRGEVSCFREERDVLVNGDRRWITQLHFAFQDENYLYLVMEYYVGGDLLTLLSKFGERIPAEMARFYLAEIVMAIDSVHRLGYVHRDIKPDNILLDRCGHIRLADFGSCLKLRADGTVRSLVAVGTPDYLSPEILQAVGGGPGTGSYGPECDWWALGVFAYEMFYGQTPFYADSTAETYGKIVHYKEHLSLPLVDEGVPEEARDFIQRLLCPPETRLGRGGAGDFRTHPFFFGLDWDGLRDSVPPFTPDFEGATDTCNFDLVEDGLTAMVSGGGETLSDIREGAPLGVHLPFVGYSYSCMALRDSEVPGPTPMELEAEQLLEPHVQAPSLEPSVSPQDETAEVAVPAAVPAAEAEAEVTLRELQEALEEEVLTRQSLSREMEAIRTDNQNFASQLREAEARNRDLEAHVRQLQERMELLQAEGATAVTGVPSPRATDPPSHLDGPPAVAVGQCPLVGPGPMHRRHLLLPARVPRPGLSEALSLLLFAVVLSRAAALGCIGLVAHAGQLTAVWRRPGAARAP

[22] = biological target: GSK3B (human) (UniProt P49841)
GSK3B (human), sequence (P49841 whole entry, looked up): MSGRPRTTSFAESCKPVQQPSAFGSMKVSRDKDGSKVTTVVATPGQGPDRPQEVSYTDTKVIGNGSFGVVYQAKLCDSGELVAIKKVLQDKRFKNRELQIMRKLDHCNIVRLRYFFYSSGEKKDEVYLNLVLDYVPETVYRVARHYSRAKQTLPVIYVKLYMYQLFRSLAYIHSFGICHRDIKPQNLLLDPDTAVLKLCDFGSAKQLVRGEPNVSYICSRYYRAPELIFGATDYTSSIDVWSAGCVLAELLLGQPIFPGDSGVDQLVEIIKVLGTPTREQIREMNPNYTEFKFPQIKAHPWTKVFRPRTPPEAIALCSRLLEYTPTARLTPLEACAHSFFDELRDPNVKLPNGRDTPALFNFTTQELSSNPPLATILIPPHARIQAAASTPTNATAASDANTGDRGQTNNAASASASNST

[23] = biological target: CSNK1D (human) (UniProt P48730)
[24] = biological target: NEK6 (human) (UniProt Q9HC98)
[25] = biological target: MUSK (human) (UniProt O15146)
MUSK (human), sequence (O15146 whole entry, looked up): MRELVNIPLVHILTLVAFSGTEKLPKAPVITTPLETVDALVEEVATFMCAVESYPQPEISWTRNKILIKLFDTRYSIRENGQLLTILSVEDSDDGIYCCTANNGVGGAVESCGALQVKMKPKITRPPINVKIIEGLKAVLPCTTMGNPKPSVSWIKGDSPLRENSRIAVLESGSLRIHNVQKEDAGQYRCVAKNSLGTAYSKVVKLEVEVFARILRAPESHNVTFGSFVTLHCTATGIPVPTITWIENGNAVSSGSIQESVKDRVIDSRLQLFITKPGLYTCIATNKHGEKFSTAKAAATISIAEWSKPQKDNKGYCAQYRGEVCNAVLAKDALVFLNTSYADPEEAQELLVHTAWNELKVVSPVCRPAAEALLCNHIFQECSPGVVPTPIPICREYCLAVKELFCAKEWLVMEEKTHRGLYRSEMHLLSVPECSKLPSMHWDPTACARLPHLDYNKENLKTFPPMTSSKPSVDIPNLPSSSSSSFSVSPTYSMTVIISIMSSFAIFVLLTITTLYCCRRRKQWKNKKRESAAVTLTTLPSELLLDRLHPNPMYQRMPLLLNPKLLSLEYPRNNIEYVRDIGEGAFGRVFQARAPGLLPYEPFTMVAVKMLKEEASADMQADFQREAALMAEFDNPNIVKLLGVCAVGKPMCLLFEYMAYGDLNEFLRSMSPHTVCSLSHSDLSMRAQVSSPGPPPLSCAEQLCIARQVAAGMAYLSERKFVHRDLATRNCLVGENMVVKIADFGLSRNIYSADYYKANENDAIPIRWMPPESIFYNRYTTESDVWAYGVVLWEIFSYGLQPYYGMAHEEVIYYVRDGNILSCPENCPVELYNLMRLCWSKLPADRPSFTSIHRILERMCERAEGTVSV

[26] = biological target: CDK6 CCND1 (human) (UniProt Q00534+P24385)
[27] = biological target: NTRK1 (human) (UniProt P04629)
[28] = biological target: EPHB4 (human) (UniProt P54760)
EPHB4 (human), sequence (P54760 whole entry, looked up): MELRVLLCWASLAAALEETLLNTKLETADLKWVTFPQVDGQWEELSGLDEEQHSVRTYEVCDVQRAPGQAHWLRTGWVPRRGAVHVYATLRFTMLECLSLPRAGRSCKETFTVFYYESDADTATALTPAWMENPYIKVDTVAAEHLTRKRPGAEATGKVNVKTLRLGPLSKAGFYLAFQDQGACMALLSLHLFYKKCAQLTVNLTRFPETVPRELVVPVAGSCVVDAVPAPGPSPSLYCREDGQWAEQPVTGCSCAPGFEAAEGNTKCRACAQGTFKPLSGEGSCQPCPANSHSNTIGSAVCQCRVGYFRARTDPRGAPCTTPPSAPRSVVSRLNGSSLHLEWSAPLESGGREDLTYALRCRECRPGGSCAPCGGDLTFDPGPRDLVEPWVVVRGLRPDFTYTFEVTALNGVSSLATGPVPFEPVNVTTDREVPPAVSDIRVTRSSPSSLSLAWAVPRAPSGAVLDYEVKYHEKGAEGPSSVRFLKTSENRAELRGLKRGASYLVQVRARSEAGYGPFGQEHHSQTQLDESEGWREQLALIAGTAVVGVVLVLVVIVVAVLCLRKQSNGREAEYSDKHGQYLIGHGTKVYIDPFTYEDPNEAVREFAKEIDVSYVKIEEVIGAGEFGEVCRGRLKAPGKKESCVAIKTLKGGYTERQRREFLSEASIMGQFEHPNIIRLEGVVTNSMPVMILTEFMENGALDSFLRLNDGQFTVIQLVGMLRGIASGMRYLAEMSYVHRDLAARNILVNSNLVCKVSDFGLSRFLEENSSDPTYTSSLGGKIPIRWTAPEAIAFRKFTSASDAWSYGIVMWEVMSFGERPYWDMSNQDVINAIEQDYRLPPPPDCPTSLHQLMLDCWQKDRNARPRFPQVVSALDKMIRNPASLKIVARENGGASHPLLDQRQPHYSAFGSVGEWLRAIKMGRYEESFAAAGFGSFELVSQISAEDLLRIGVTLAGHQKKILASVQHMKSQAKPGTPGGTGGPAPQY

[29] = biological target: BRSK2 (human) (UniProt Q8IWQ3)
[30] = biological target: DYRK1B (human) (UniProt Q9Y463)
[31] = biological target: FGFR1 (human) (UniProt P11362)
FGFR1 (human), sequence (P11362 whole entry, looked up): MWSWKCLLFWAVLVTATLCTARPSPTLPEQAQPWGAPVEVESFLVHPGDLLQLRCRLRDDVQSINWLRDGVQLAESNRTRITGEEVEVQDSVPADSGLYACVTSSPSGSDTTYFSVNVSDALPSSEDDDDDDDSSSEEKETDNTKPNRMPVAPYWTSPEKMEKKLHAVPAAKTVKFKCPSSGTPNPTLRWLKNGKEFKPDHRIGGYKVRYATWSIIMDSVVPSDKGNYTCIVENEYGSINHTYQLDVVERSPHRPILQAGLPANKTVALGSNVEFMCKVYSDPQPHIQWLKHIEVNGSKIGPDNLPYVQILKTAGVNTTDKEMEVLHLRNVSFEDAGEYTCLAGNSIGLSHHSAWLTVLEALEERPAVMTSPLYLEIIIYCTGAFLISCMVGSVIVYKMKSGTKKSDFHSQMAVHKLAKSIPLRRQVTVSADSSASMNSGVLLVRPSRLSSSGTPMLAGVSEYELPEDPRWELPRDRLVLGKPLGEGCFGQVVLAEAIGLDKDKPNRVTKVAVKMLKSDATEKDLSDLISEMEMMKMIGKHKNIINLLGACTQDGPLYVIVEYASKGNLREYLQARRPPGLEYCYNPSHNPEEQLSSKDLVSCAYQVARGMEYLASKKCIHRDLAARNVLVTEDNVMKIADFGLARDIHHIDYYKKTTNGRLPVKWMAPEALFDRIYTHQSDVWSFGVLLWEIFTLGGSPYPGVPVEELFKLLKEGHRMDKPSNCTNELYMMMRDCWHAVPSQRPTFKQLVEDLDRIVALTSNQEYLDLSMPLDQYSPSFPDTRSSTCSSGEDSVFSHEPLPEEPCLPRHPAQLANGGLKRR

[32] = biological target: PASK (human) (UniProt Q96RG2)
[33] = biological target: WNK2 (human) (UniProt Q9Y3S1)
[34] = biological target: CDK5 CDK5R1 p35 (human) (UniProt Q00535+Q15078)
[35] = biological target: PTK2B (human) (UniProt Q14289)
[36] = biological target: NEK2 (human) (UniProt P51955)
NEK2 (human), sequence (P51955 whole entry, looked up): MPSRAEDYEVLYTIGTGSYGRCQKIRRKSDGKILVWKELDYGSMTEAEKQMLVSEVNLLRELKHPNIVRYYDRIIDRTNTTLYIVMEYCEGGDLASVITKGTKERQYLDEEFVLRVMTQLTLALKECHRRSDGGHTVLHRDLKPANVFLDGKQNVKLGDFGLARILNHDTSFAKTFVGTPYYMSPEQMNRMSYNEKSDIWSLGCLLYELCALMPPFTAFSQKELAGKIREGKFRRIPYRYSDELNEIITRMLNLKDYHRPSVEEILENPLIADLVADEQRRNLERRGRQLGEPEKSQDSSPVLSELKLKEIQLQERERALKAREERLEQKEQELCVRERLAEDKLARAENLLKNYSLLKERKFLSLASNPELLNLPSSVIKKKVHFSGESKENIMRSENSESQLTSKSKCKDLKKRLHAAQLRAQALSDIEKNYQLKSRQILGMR

[37] = biological target: PHKG2 (human) (UniProt P15735)
[38] = biological target: NTRK3 (human) (UniProt Q16288)
[39] = biological target: MAPK8 (human) (UniProt P45983)
MAPK8 (human), sequence (P45983 whole entry, looked up): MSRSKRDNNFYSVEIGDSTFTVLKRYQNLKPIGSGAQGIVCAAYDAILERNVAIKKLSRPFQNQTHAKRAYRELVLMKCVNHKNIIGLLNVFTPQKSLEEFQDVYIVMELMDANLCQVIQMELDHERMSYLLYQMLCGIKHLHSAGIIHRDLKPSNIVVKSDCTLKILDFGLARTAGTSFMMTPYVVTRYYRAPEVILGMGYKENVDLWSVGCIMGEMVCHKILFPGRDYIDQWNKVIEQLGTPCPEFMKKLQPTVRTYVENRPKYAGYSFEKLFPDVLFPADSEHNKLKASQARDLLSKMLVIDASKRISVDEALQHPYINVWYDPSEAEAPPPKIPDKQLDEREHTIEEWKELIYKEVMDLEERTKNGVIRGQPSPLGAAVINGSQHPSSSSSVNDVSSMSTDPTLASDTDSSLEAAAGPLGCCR

[40] = biological target: STK25 (human) (UniProt O00506)
STK25 (human), sequence (O00506 whole entry, looked up): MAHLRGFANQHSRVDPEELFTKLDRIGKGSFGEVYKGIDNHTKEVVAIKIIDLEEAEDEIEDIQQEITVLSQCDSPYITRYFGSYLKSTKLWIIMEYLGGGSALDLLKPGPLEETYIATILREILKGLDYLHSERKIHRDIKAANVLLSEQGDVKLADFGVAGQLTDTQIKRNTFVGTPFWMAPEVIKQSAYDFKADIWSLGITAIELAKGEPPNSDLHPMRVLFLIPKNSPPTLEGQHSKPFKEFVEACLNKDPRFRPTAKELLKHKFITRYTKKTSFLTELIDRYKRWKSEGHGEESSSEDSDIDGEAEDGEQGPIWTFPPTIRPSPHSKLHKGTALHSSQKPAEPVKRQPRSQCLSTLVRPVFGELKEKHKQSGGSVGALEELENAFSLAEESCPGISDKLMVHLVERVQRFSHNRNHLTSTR

[41] = biological target: FGFR2 (human) (UniProt P21802)
[42] = biological target: CAMK1G (human) (UniProt Q96NX5)

CCCNC(=O)Nc1ccc(Oc2ncnc3cc(OC)c(OC)cc23)cc1Cl gave a residual activity [1] of 90.8%, a residual activity [2] of 102% and a residual activity [3] of 106%. It also gave a residual activity [4] of 78.5%, a residual activity [5] of 96.8% and a residual activity [6] of 101%. It also gave a residual activity [7] of 96.2%, a residual activity [8] of 88.9% and a residual activity [9] of 104%. It also gave a residual activity [10] of 99.1%, a residual activity [11] of 80% and a residual activity [12] of 67.7%. For the same compound, the residual activity [13] was 96.4%, the residual activity [14] was 99% and the residual activity [15] was 89.3%. For the same compound, the residual activity [16] was 99.2%, the residual activity [17] was 95% and the residual activity [18] was 105%. The residual activity [19] was 106%, the residual activity [20] was 123% and the residual activity [21] was 100%. The residual activity [22] was 91.3%, the residual activity [23] was 98.9% and the residual activity [24] was 105%. For the same compound, the residual activity [25] was 101%, the residual activity [26] was 92.9% and the residual activity [27] was 93.2%. The residual activity [28] was 89.4%, the residual activity [29] was 96.7% and the residual activity [30] was 104%. It also gave a residual activity [31] of 75.4%, a residual activity [32] of 87.7% and a residual activity [33] of 100%. For the same compound, the residual activity [34] was 98%, the residual activity [35] was 88% and the residual activity [36] was 92.3%. The residual activity [37] was 84.1%, the residual activity [38] was 89% and the residual activity [39] was 107%. For the same compound, the residual activity [40] was 92.6%, the residual activity [41] was 91.3% and the residual activity [42] was 103%.
O=c1cc(N2CCNCC2)oc2c(-c3ccccc3)cccc12 was tested, and the residual activity [1] was 97.3%, the residual activity [2] was 107% and the residual activity [3] was 162%. For the same compound, the residual activity [4] was 101%, the residual activity [5] was 84.5% and the residual activity [6] was 121%. The residual activity [7] was 105%, the residual activity [8] was 101% and the residual activity [9] was 98.9%. The residual activity [10] was 94.3%, the residual activity [11] was 105% and the residual activity [12] was 98.3%. It also gave a residual activity [13] of 116%, a residual activity [14] of 98.4% and a residual activity [15] of 96%. The residual activity [16] was 108%, the residual activity [17] was 104% and the residual activity [18] was 102%. The residual activity [19] was 94.7%, the residual activity [20] was 89.2% and the residual activity [21] was 96.2%. It also gave a residual activity [22] of 97%, a residual activity [23] of 99.5% and a residual activity [24] of 105%. It also gave a residual activity [25] of 103%, a residual activity [26] of 94.6% and a residual activity [27] of 96.4%. It also gave a residual activity [28] of 101%, a residual activity [29] of 103% and a residual activity [30] of 99.2%. The residual activity [31] was 110%, the residual activity [32] was 93% and the residual activity [33] was 111%. It also gave a residual activity [34] of 102%, a residual activity [35] of 88.3% and a residual activity [36] of 86%. It also gave a residual activity [37] of 96.9%, a residual activity [38] of 99.8% and a residual activity [39] of 89.3%. It also gave a residual activity [40] of 116%, a residual activity [41] of 98.9% and a residual activity [42] of 94.7%.
Work on CSc1nc(-c2ccc(F)cc2)c(-c2ccnc(NC(C)c3ccccc3)c2)[nH]1 (stereo not drawn) yielded a residual activity [1] of 85.4%, a residual activity [2] of 108% and a residual activity [3] of 103%. The residual activity [4] was 72%, the residual activity [5] was 87% and the residual activity [6] was 87.9%. The residual activity [7] was 90.7%, the residual activity [8] was 101% and the residual activity [9] was 94.3%. The residual activity [10] was 96.3%, the residual activity [11] was 104% and the residual activity [12] was 93.1%. The residual activity [13] was 92.7%, the residual activity [14] was 97.8% and the residual activity [15] was 81.3%. It also gave a residual activity [16] of 104%, a residual activity [17] of 99.7% and a residual activity [18] of 58.4%. It also gave a residual activity [19] of 91.4%, a residual activity [20] of 86.5% and a residual activity [21] of 80%. For the same compound, the residual activity [22] was 97.9%, the residual activity [23] was 41.9% and the residual activity [24] was 106%. The residual activity [25] was 101%, the residual activity [26] was 90.9% and the residual activity [27] was 91.2%. The residual activity [28] was 99.9%, the residual activity [29] was 94.8% and the residual activity [30] was 84.6%. The residual activity [31] was 97.6%, the residual activity [32] was 95.7% and the residual activity [33] was 118%. It also gave a residual activity [34] of 101%, a residual activity [35] of 100% and a residual activity [36] of 89.9%. It also gave a residual activity [37] of 125%, a residual activity [38] of 93.6% and a residual activity [39] of 86.3%. The residual activity [40] was 118%, the residual activity [41] was 95.2% and the residual activity [42] was 98.3%.
Clc1ccc(Nc2nnc(Cc3ccncc3)c3ccccc23)cc1 showed a residual activity [1] of 107%, a residual activity [2] of 98.2% and a residual activity [3] of 94.1%. The residual activity [4] was 99.1%, the residual activity [5] was 78.1% and the residual activity [6] was 95.8%. For the same compound, the residual activity [7] was 133%, the residual activity [8] was 113% and the residual activity [9] was 101%. It also gave a residual activity [10] of 70%, a residual activity [11] of 94.2% and a residual activity [12] of 116%. For the same compound, the residual activity [13] was 100%, the residual activity [14] was 99.4% and the residual activity [15] was 91.6%. For the same compound, the residual activity [16] was 107%, the residual activity [17] was 100% and the residual activity [18] was 100%. It also gave a residual activity [19] of 97.5%, a residual activity [20] of 105% and a residual activity [21] of 102%. For the same compound, the residual activity [22] was 104%, the residual activity [23] was 92.2% and the residual activity [24] was 93.3%. For the same compound, the residual activity [25] was 105%, the residual activity [26] was 93% and the residual activity [27] was 98.7%. The residual activity [28] was 85.1%, the residual activity [29] was 97.1% and the residual activity [30] was 109%. For the same compound, the residual activity [31] was 97.2%, the residual activity [32] was 101% and the residual activity [33] was 96.3%. The residual activity [34] was 97.2%, the residual activity [35] was 102% and the residual activity [36] was 101%. For the same compound, the residual activity [37] was 91.8%, the residual activity [38] was 92.7% and the residual activity [39] was 98.2%. For the same compound, the residual activity [40] was 94%, the residual activity [41] was 96% and the residual activity [42] was 107%.
